The source of these data is patent publication US9763996B2, “Polymyxin derivative and uses thereof” (Northern Antibiotics Ltd., priority 2015, dated 2017).

Converted amounts (≈) assume the structure as drawn. “Also recorded” adds a separate entry of the source. Read-outs that look alike come from different tables or passages of the source. Where a SMILES comes first, the peptide text is derived from it. Bridges are numbered along the chain shown (N, C = ends). [ ]: non-standard residue; d: D form. The star is where a group is joined. Octanoyl = CCCCCCCC(=O)*; Dab = NCC[C@H](N)C(=O)O; Abu = CC[C@H](N)C(=O)O

Series [1] relates to P. aeruginosa. As to the kind of experiment: Synergy studies with rifampin. It counts as cell-based, Pseudomonas aeruginosa. The conditions noted are these: against P. aeruginosa. The procedure:
Synergy studies were performed by using polymyxin derivatives in combination with rifampin, a model compound for such antibacterial agents that the intact outer membrane of Gram-negative bacteria acts as a permeability barrier.

The nature of series [2]: 7-day IV infusion toxicity (nephrotoxicity) study in cynomolgus monkeys. As to conditions: for unscheduled necropsy / euthanized due to severe nephrotoxic effects: 3 animals per group. As to the method:
In vivo toxicity and toxicokinetic studies were performed by using cynomolgus monkeys. The laboratory that performed the animal studies is accredited by the Association for Assessment and Accreditation of Laboratory Animal Care (AAALAC), has an Animal Welfare Assurance issued by the Office of Laboratory Animal Welfare (OLAW), is registered with the United States Department of Agriculture (USDA), and has an Institutional Animal Care and Use Committee (IACUC) responsible for compliance with applicable laws and regulations concerning the humane care and use of laboratory animals.
Naïve female cynomolgus monkeys were acclimatized to study room for 28 days during which each animal was implanted with a permanent indwelling femoral catheter to permit continuous intravenous infusions. The animals were allowed surgical recovery period of at least 2 weeks before initiating dosing.
Polymyxin B sulfate was from Sigma-Aldrich (catalogue number P0972, lot number BCBF8382V). On each day of use, appropriate quantities of NAB739, NAB815 or polymyxin B were weighed and dissolved in appropriate volumes of sterile saline to prepare a stock solution for each test article and positive control. A correction factor was used in the stock solution preparation to account for both the purity and sulfate content in each test article. Accordingly, the dose (such as 36 mg/kg/d) refers to the dose of the pure peptide as its free base form, not as its sulfate salt.
The doses were the following: polymyxin B 18 mg/kg/d (Group 1), polymyxin B 24 mg/kg/d (Group 2), NAB739 24 mg/kg/d (Group 3), NAB739 36 mg/kg/d (Group 4), NAB815 24 mg/kg/d (Group 5), NAB815 36 mg/kg/d (Group 6). Three animals were included in each study groups.
For seven days, the animals were dosed by intravenous (IV) infusion three times daily (TID) at a dose volume of 10 mL/kg for 1 hour (±10 minutes), 8±0.5 hours apart. The day of initial dose administration was designated study Day 1, with subsequent days consecutively numbered. Days prior to the initial dose administration were consecutively numbered with the final day of acclimation referenced as Day −1.
The following parameters were evaluated at designed intervals: clinical observations, body weights, clinical pathology (hematology, coagulation, serum chemistry, urinalysis including urine sediments and urine chemistry), toxicokinetics (plasma and urine) and anatomic pathology (kidney). In cases of animals sacrificed on an unscheduled basis, samples were taken on the day of the sacrifice.
On the day of necropsy, animals were sedated with ketamine, weighed, and anesthetized with an intravenous injection of a commercial pentobarbital and phenytoin solution, followed by exsanguinations.
At necropsy, gross observations and organ weights were recorded, and specific tissues were collected. Histopathology was conducted on sections of kidney stained with hematoxylin and eosin (H&E).
The figures also show Urine N-acetyl-β-D-glucosaminidase/urine creatinine ratio (U-NAG/Crea; FIG. 3) and Urine Gamma Glutamyltransferase/urine creatinine ratio (U-GGT/Crea; FIG. 4), both urine biomarkers for kidney injury, in those animals. S-Crea and U-Crea were measured by using an Olympus Analyzer (OA) and the modified Jaffe method, S-BUN by using OA and urease/L-glutamate dehydrogenase. U-NAG was measured by using OA/enzymatic, and U-GGT by using OA and glutamyl-carboxy-p-nitroanilide IFCC.
The presence of the following nephro-pathological parameters was recorded in each animal: tubular basophilia (re-generation), tubular degeneration/necrosis, infiltration (by mononuclear and/or mixed inflammatory cells), tubular dilatation, and tubular casts.

Series [3] deals with E. coli JMI 3328. The conditions noted are these: for MIC: E. coli JMI 3328.
The subject of series [4] is A. baumannii JMI 48125.
Series [5] deals with E. coli JMI 109. The conditions noted are these: alone; E. coli JMI 109 (polymyxin-nonsusceptible).
Series [6] has as its system P. aeruginosa ATCC 27853. As to the kind of experiment: MIC assay (CLSI broth microdilution; checkerboard with rifampin). As to conditions: P. aeruginosa ATCC 27853. A general note: Dilution methods test growth across graded concentrations, often in twofold steps.
Where [7] appears, read: in combination with rifampin 0.25 μg/mL.
The mark [8] stands for this setting: peptide at 1 μg/mL, E. coli JM13328.

The term MIC denotes the lowest concentration found to suppress growth.

Take `CCCCCCCC(=O)N[C@@H](CCN)C(=O)N[C@H](C(=O)N[C@@H](C(=O)N[C@H]1CCNC(=O)[C@H]([C@@H](C)O)NC(=O)[C@H](CCN)NC(=O)[C@H](CC)NC(=O)[C@H](CC(C)C)NC(=O)[C@@H](Cc2ccccc2)NC(=O)[C@H](CCN)NC1=O)[C@H](C)O)[C@@H](C)O` [NAB815, octanoyl-αDab-Thr-DThr-[cyclo-α,γDab-αDab-DPhe-Leu-Abu-αDab-Thr]] (Octanoyl-[Dab]T[dT][Dab][Dab][dF]L[Abu][Dab]T; lactam 4-C): the “synergistic activity with rifampin” value in series [1] is reported as “lacked any notable synergistic activity with rifampin”. In addition, the “kidney injury markers (S-BUN, S-Crea, U-NAG/Crea, U-GGT/Crea)” value in series [2] (24 mg/kg/d IV TID 7 days) was “None of the parameters was elevated”. Further, in series [2] (36 mg/kg/d IV TID 7 days), the “kidney injury markers (S-BUN, S-Crea, U-NAG/Crea, U-GGT/Crea)” value is listed as “only minor if any elevations in the four parameters” and the “unscheduled necropsy / euthanized due to severe nephrotoxic effects” value was “underwent no prescheduled necropsy”. Besides, the “kidney histopathology findings (grade of nephro-pathological parameters)” value in series [2] (36 mg/kg/d IV TID, H&E kidney sections, per animal(s)) is on record as “moderate findings, both in one parameter only; also recorded: no other than minimal or mild findings; also recorded: less severe nephropathic alterations with NAB815”. This compound returned a minimal inhibitory concentration (MIC) in series [3] (alone) of 4 µg/mL (≈ 3.4 µM). The MIC in series [3] (setting [7]) was 1 µg/mL. Further, in series [3] (setting [8]), the “MIC of rifampin in the presence of the peptide” value was determined as 0.25 µg/mL and the “factor of decrease of the MIC of rifampin” value came out at 32.
As for Polymyxin B, the figures for the “unscheduled necropsy / euthanized due to severe nephrotoxic effects” value in series [2] (18 mg/kg/d IV TID 7 days) and in series [2] (24 mg/kg/d IV TID 7 days) were “all the three animals receiving polymyxin B at 18 mg/kg/d had to be euthanized; also recorded: on Day 4 for one animal receiving 18 mg/kg/d; also recorded: on Day 5 for two animals receiving 18 mg/kg/d” and “Two animals receiving polymyxin B at 24 mg/kg/d; also recorded: for two animals receiving 24 mg/kg/d”, respectively. In addition, in series [2] (18 and 24 mg/kg/d IV TID, all the six animals), the “S-BUN, S-Crea and U-GGT/Crea” value is listed as “remarkably increased”. For the same compound, the U-NAG/Crea result in series [2] (18 and 24 mg/kg/d IV TID, six animals) is “remarkably increased in five of the animals”. The MIC is 2 µg/mL in series [3] (alone); 0.5 to 1 µg/mL in series [3] (setting [7]); 2 µg/mL in series [4] (alone); 1 µg/mL in series [4] (setting [7]); 4 to 8 µg/mL in series [5]; 2 µg/mL in series [6] (alone). Also, in series [6] (setting [7]), the MIC worked out at 1 µg/mL.
